# Test results as given in patent publication US9309511B2, “Functional assay for identification of loss-of-function mutations in genes” (priority 2007, dated 2016).
# What was measured:
# [1] = test system: BRCA2^wt/Δex11 cells (DLD1); assay: Cell proliferation assay upon drug treatment, hemizygous clone; type: cell-based, human; conditions: 6 days
# Experimental: (§1) DLD1 cells were obtained from ATCC, cultured in conventional media supplemented with 10% fetal calf serum, L-glutamine and penicillin/streptomycin.
# (§2) In each well of 96-well plates, 1000 cells were plated, allowed to adhere and treated with various drugs. The drugs were obtained from Sigma (St. Louis, Mo.) except for SJG-136 which was generously provided by Ipsen Ltd. and the National Cancer Institute, NIH. The cells were washed after 6 days and lysed in 100 uL of water. Fluorescence was measured after addition of 0.5% Picogreen® (Molecular Probes, Eugene, Oreg.) using a fluorometer (Fusion®, Perkin Elmer, Shelton, Conn.). Three independent experiments were performed per drug.
# [2] = test system: BRCA2^Δex11/Δex11 cells (DLD1); assay: Cell proliferation assay upon drug treatment, BRCA2 knock-out cells; type: cell-based, human; conditions: for FoldΔ: ratio of the IC50 of cells having the hemizygous wild-type allele to the IC50 of cells having the mutated allele: BRCA2^Δex11/Δex11 cells vs control cells, cell proliferation; for FoldΔ: ratio of the IC50 of cells having the hemizygous wild-type allele to the IC50 of cells having the mutated allele / Sensitivity of BRCA2-deficient cells compared to parental and heterozygous cells (in words): 6 days; for Sensitivity of BRCA2-deficient cells compared to parental and heterozygous cells (in words): cell proliferation following drug treatment
# Experimental: as §1, §2
# BRCA2^Δex11/Y3308X cells = assay: Cell proliferation assay upon drug treatment, SyVaL clone Y3308X; type: cell-based, human; conditions: 6 days
# Experimental: (§3) Alternately, exon 27 was targeted in the hemizygous cells using a construct whose right homology arm included intact exon 27 and individual sequence variants. Homologous integration of the construct, the presence of desired sequence variants and allelic phase of the construct were determined by allele-specific PCR and sequencing. An analogous vector design was used by Hurley et al. to introduce an ATR mutation into alleles of a human cell (Hurley, P. J. et al., Oncogene. 2007. 26, 2535-42, incorporated herein by reference).
# as §2
# BRCA2^Δex11/Y3308Y cells = assay: Cell proliferation assay upon drug treatment, SyVaL clone Y3308Y; type: cell-based, human; conditions: 6 days
# Experimental: as §3, §2
# BRCA2^Δex11/P3292L cells = assay: Cell proliferation assay upon drug treatment, SyVaL clone P3292L; type: cell-based, human; conditions: 6 days
# Experimental: as §3, §2
# BRCA2^Δex11/P3280H cells = assay: Cell proliferation assay upon drug treatment, SyVaL clone P3280H; type: cell-based, human; conditions: 6 days
# Experimental: as §3, §2
# BRCA2^Δex11/S3291E cells = assay: Cell proliferation assay upon drug treatment, SyVaL clone S3291E; type: cell-based, human; conditions: 6 days
# Experimental: as §3, §2
# BRCA2^Δex11/S3291A cells = assay: Cell proliferation assay upon drug treatment, SyVaL clone S3291A; type: cell-based, human; conditions: 6 days
# Experimental: as §3, §2
# [3] = test system: fibroblasts from a Fanconi D1 patient; conditions: reported by Treszezamsky, Cancer Res. 2007; cited from earlier work
# [4] = test system: BRCA2-deficient mouse thymocytes; conditions: Flores et al., Mol Carcinog 2002; cited from earlier work
# [5] = test system: BRCA2-deficient mouse small intestines; conditions: Walker et al., J Biol Chem. 2004; cited from earlier work
# BRCA2 proficient cells = assay: Rad51 focus-formation (immunofluorescence); type: cell-based, human; conditions: MMC 2.4 μg/ml, 24 h incubation
# Experimental: Cells were treated with MMC (2.4 μg/ml) or gamma irradiation and fixed in PBS/2% paraformaldehyde after 24 h incubation. Following permeabilization in PBS/0.5% Triton X-100 and blocking for 30 min in PBS/1% bovine serum albumin/0.15% glycine, the cells were incubated with an anti-Rad51 antibody (1:200, Calbiochem, San Diego, Calif.) for 2 h. Cells were then washed and incubated with a […] (1:200, Alexa® 488, Molecular Probes, Eugene, Oreg.) for 1 h. After washing, slides were mounted and analyzed by a fluorescent microscope (Zeiss Axiover 135, Maple Grove, Minn.) and Metamorph 4.6 software (Universtal Imaging, Downington, Pa.). Pictures were acquired, keeping exposure time and software settings constant for all samples.
# Baseline or induced Rad51 focus formation was considered “negative” when less than 5% or 20%, respectively, of cells had more than 5 nuclear foci and “positive” when more than 5% or 30%, respectively, of cells had more than 5 nuclear foci. Intermediate phenotypes were not observed.
# BRCA2^Δex11/Δex11 cells = assay: Chromosome aberration assay; type: cell-based, human; conditions: BRCA2^Δex11/Δex11 vs BRCA2^wt/Δex11, MMC at equitoxic doses, 24 h
# Experimental: Cells were treated with equitoxic doses of MMC (80 nM for BRCA2^wt/Δex11 and 6 nM for BRCA2^Δex11/Δex11) for 24 h. For each sample, 50 metaphases were analyzed using standard techniques by a core facility.
# BRCA2-deficient cells = assay: Cell-cycle analysis by flow cytometry; type: cell-based, human; conditions: 48 h after MMC treatment
# Experimental: Cells were treated with MMC for 48 hours, processed as described previously (Vindelov, L. L., et al., Cytometry 1983. 3: 323-7, incorporated herein by reference) and analyzed by flow cytometry.
# [6] = test system: ATR^s/s DLD1 colorectal cancer cells; assay: Proliferation assay for MMC sensitivity in ATR knock-in cells; type: cell-based, human; conditions: 6 d after treatment
# Experimental: For siRNA experiments, the cells were plated in 6-well plates at 500,000 cells/well at 24 h after siRNA transfection. Separate aliquots of each sample were counted at six different time points one to four days after transfection, using two separate aliquots for each time point. Dead cells were separately determined by trypan-blue exclusion and were negligible in number in all samples (<2%). For comparisons between parental cells and FANCD2^+/−. clones, 500,000 cells/well were plated and counted at six time points between 0 and 48 h. Two independent experiments were performed. For MMC sensitivity studies, Picogreen® (Invitrogen) proliferation assays were performed in quadruplicate as described in Gallmeier et al., 2006.
structure (smiles),measurement,setting,value
"COc1cc([C@@H]2c3cc4c(cc3[C@@H](O[C@@H]3O[C@@H]5CO[C@@H](C)O[C@H]5[C@H](O)[C@H]3O)[C@H]3COC(=O)[C@H]23)OCO4)cc(OC)c1O [Etoposide, etoposide]",FoldΔ: ratio of the IC50 of cells having the hemizygous wild-type allele to the IC50 of cells having the mutated allele,[1],NoΔ
same,Etoposide hypersensitivity in combination with other anticancer agents,[2]; BRCA2-deficient cells,"additive to, but not synergistic with"
same,FoldΔ: ratio of the IC50 of cells having the hemizygous wild-type allele to the IC50 of cells having the mutated allele,[2],10-foldΔ
same,FoldΔ: ratio of the IC50 of cells having the hemizygous wild-type allele to the IC50 of cells having the mutated allele,[2]; listed as etoposide,10 fold
same,FoldΔ: ratio of the IC50 of cells having the hemizygous wild-type allele to the IC50 of cells having the mutated allele,BRCA2^Δex11/Y3308X cells,10-foldΔ
same,FoldΔ: ratio of the IC50 of cells having the hemizygous wild-type allele to the IC50 of cells having the mutated allele,BRCA2^Δex11/Y3308X cells; listed as etoposide,10 fold
same,FoldΔ: ratio of the IC50 of cells having the hemizygous wild-type allele to the IC50 of cells having the mutated allele,BRCA2^Δex11/Y3308Y cells,NoΔ
same,FoldΔ: ratio of the IC50 of cells having the hemizygous wild-type allele to the IC50 of cells having the mutated allele,BRCA2^Δex11/Y3308Y cells; listed as etoposide,did not differ from control cells
same,FoldΔ: ratio of the IC50 of cells having the hemizygous wild-type allele to the IC50 of cells having the mutated allele,BRCA2^Δex11/P3292L cells,NoΔ
same,FoldΔ: ratio of the IC50 of cells having the hemizygous wild-type allele to the IC50 of cells having the mutated allele,BRCA2^Δex11/P3292L cells; listed as etoposide,not significantly more sensitive
same,FoldΔ: ratio of the IC50 of cells having the hemizygous wild-type allele to the IC50 of cells having the mutated allele,BRCA2^Δex11/P3280H cells,NoΔ
same,FoldΔ: ratio of the IC50 of cells having the hemizygous wild-type allele to the IC50 of cells having the mutated allele,BRCA2^Δex11/P3280H cells; listed as etoposide,not significantly more sensitive
same,FoldΔ: ratio of the IC50 of cells having the hemizygous wild-type allele to the IC50 of cells having the mutated allele,BRCA2^Δex11/S3291E cells,3-foldΔ
same,FoldΔ: ratio of the IC50 of cells having the hemizygous wild-type allele to the IC50 of cells having the mutated allele,BRCA2^Δex11/S3291E cells; listed as etoposide,3 fold
same,FoldΔ: ratio of the IC50 of cells having the hemizygous wild-type allele to the IC50 of cells having the mutated allele,BRCA2^Δex11/S3291A cells,NoΔ
same,Difference in sensitivity of BRCA2 deficient cells to the drug,[3],2.75 fold
same,Etoposide sensitivity,[4],no increased etoposide sensitivity
same,Etoposide sensitivity,[5],no increased etoposide sensitivity
"CO[C@@]12[C@H](COC(N)=O)C3=C(C(=O)C(C)=C(N)C3=O)N1C[C@@H]1N[C@@H]12 [MMC, mitomycin C]",FoldΔ: ratio of the IC50 of cells having the hemizygous wild-type allele to the IC50 of cells having the mutated allele,[1],NoΔ
same,FoldΔ: ratio of the IC50 of cells having the hemizygous wild-type allele to the IC50 of cells having the mutated allele,[1]; listed as mitomycin,absence of mitomycin hypersensitivity
same,FoldΔ: ratio of the IC50 of cells having the hemizygous wild-type allele to the IC50 of cells having the mutated allele,[2],20-foldΔ
same,Sensitivity of BRCA2-deficient cells compared to parental and heterozygous cells (in words),[2],greatly increased sensitivity
same,FoldΔ: ratio of the IC50 of cells having the hemizygous wild-type allele to the IC50 of cells having the mutated allele,BRCA2^Δex11/Y3308Y cells,did not differ from control cells and NoΔ
same,FoldΔ: ratio of the IC50 of cells having the hemizygous wild-type allele to the IC50 of cells having the mutated allele,BRCA2^Δex11/P3292L cells,not significantly more sensitive and NoΔ
same,FoldΔ: ratio of the IC50 of cells having the hemizygous wild-type allele to the IC50 of cells having the mutated allele,BRCA2^Δex11/P3280H cells,not significantly more sensitive and NoΔ
same,FoldΔ: ratio of the IC50 of cells having the hemizygous wild-type allele to the IC50 of cells having the mutated allele,BRCA2^Δex11/S3291A cells,NoΔ
same,Cells with induced Rad51 foci (more than 5 foci),BRCA2 proficient cells,60-80%
same,"Rates of chromosomal aberrations, including breaks and radials",BRCA2^Δex11/Δex11 cells,much higher rates of chromosomal aberrations
same,Cell cycle effect (genotype-dependent toxicity),BRCA2-deficient cells,profound G2/M arrest
same,MMC sensitivity compared to control cells,[6],strikingly more sensitive
Cc1nc2c(O)cccc2c(=O)[nH]1 [NU1025],FoldΔ: ratio of the IC50 of cells having the hemizygous wild-type allele to the IC50 of cells having the mutated allele,[2],20 fold
C=C1C[C@H]2C=Nc3cc(OCCCOc4cc5c(cc4OC)C(=O)N4CC(=C)C[C@H]4C=N5)c(OC)cc3C(=O)N2C1 [SJG],Sensitivity of BRCA2-deficient cells compared to parental and heterozygous cells (in words),[2],greatly increased sensitivity
O=c1cc(-c2ccc(O)cc2)oc2cc(O)cc(O)c12 [apigenin],Sensitivity of BRCA2-deficient cells compared to parental and heterozygous cells (in words),[2],No differences in sensitivities
CC[C@@]1(O)C(=O)OCc2c1cc1n(c2=O)Cc2cc3ccccc3nc2-1 [camptothecin],FoldΔ: ratio of the IC50 of cells having the hemizygous wild-type allele to the IC50 of cells having the mutated allele,[2],6 fold
N.N.O=C([O-])C1(C(=O)[O-])CCC1.[Pt+2] [carboplatin],Sensitivity of BRCA2-deficient cells compared to parental and heterozygous cells (in words),[2],greatly increased sensitivity
N.N.[Cl][Pt][Cl] [cisplatin],Sensitivity of BRCA2-deficient cells compared to parental and heterozygous cells (in words),[2],greatly increased sensitivity
COc1cc(/C=C/C(=O)CC(=O)/C=C/c2ccc(O)c(OC)c2)ccc1O [curcumin],Sensitivity of BRCA2-deficient cells compared to parental and heterozygous cells (in words),[2],No differences in sensitivities
COc1cccc2c1C(=O)c1c(O)c3c(c(O)c1C2=O)C[C@@](O)(C(=O)CO)C[C@@H]3O[C@H]1C[C@H](N)[C@H](O)[C@H](C)O1 [doxorubicin],FoldΔ: ratio of the IC50 of cells having the hemizygous wild-type allele to the IC50 of cells having the mutated allele,[2],10 fold
Nc1ccn([C@@H]2O[C@H](CO)[C@@H](O)C2(F)F)c(=O)n1 [gemcitabine],Sensitivity of BRCA2-deficient cells compared to parental and heterozygous cells (in words),[2],No differences in sensitivities
COc1ccc([C@@H]2CC(=O)c3c(O)cc(O[C@@H]4O[C@H](CO[C@@H]5O[C@@H](C)[C@H](O)[C@@H](O)[C@H]5O)[C@@H](O)[C@H](O)[C@H]4O)cc3O2)cc1O [hesperidin],Sensitivity of BRCA2-deficient cells compared to parental and heterozygous cells (in words),[2],No differences in sensitivities
N[C@@H](Cc1ccc(N(CCCl)CCCl)cc1)C(=O)O [melphalan],Sensitivity of BRCA2-deficient cells compared to parental and heterozygous cells (in words),[2],greatly increased sensitivity
C#C[C@]1(O)CC[C@H]2[C@@H]3CCC4=CC(=O)CC[C@@H]4[C@H]3CC[C@@]21C [norethindrone],Sensitivity of BRCA2-deficient cells compared to parental and heterozygous cells (in words),[2],No differences in sensitivities
O=C1[O][Pt]2([NH][C@@H]3CCCC[C@H]3[NH]2)[O]C1=O [oxaliplatin],Sensitivity of BRCA2-deficient cells compared to parental and heterozygous cells (in words),[2],greatly increased sensitivity
CC[C@]1(O)C[C@@H]2CN(CCc3c([nH]c4ccccc34)[C@@](C(=O)OC)(c3cc4c(cc3OC)N(C)[C@H]3[C@@](O)(C(=O)OC)[C@H](OC(C)=O)[C@]5(CC)C=CCN6CC[C@]43[C@@H]65)C2)C1 [vinblastine],Sensitivity of BRCA2-deficient cells compared to parental and heterozygous cells (in words),[2],No differences in sensitivities
